Patent US20030165582A1, “Preparations that contain an extract of the plant pistia stratiotes” (priority 2000, published 2003)

System: human adipocytes
Test: Lipolytic activity: glycerol released from isolated adipocytes
Format: cell-based
Conditions: 90 minutes at 37° C., reference value=0
Description: Method: The adipocytes were isolated from human subcutaneous tissue by the standard Rodbell method (J. of Biolog. Chem.; 1964, 239, 375-380). The extract of Examples 1 to 3 each with two extracts (batches A and B) and the comparison substances were dissolved in a Hanks reference medium with a particular salt concentration (Cell and Tissue Culture, Ed: J. Paul, Churchill and Livingstone, 1975, page 484) and then contacted with the isolated adipocytes for 90 minutes at 37° C. Two to six adipocyte preparations were investigated. The percentage increase in glycerol released was spectrophotometrically determined in the supernatant of the medium by the Carpéné method (J. de Pharmacologie; 1981; 12;219-224).

| Structure (SMILES) | % Increase in glycerol released (1.0 mM) [%] | % Increase in glycerol released (0.1 μM) [%] |
| --- | --- | --- |
| Cn1c(=O)c2[nH]cnc2n(C)c1=O [Theophylline] | 187 |  |
| CC(C)NCC(O)c1ccc(O)c(O)c1 (centres unmarked) [Isoprenalin] |  | 129 |
